Legend:
[1] = test system: urinary bladder smooth muscle isolated from common marmoset; experiment: Test Example 7: relaxant activity on urinary bladder smooth muscle isolated from common marmoset; conditions: KCl 40 mmol/L contraction, papaverine 10^−4 mol/L relaxation taken as 100%
Description: Common marmosets are (CLEA Japan, Inc.) exsanguinated to death, and then are subjected to laparotomy to isolate the urinary bladder therefrom. […] The strips are applied a resting tension of 1 g, and are equilibrated for at least 30 minutes. After the resting tension of the strips have been equilibrated, KCl at a final concentration of 40 mmol/L is repeatedly added to the organ bath, and it is confirmed that contraction due to KCl becomes almost constant. […] When the relaxation response at the maximum concentration of the test compound is completed, papaverine at a final concentration of 10^−4 mol/L is added, and the maximum relaxation response of each strip is determined.

[2] = target: T1, human β2 adrenergic receptor (Homo sapiens, UniProt P07550); experiment: Test Example 3-B: human β2 adrenergic receptor agonist activity (method of Test Example 1-B); type: cell-based; conditions: for β2 receptor EC50: Table 2, Test Example 3-B; for Emax: read-out: β2 receptor I.A.
T1 construct: expressed in transfected cells; host or cells: CHO (Chinese Hamster Ovary) cells, pcDNA3
Description: [Worded in the source for another target; this target is reported under the same test.] (§1) The measurement of human β3 adrenergic receptor agonist activity is carried out using CHO (Chinese Hamster Ovary) cells transfected with pcDNA3 (manufactured by Invitrogen, Inc.) to which human β3 gene has been inserted. […] This human β3 cDNA fragment is used as a probe, and the full length human β3 gene is obtained from a human genomic library (manufactured by Clontech Laboratories, Inc.). The above cells are cultured in Ham's F-12 medium containing 10% fetal bovine serum and 400 μg/ml geneticin (manufactured by Invitrogen, Inc.). These cells are seeded on a 96-well plate to a concentration of 2×10^4 cells/well, and after being cultured for about 20 hours, the cells are left to stand in 80 μL of serum-free Ham's F-12 medium for 15 minutes. A test compound is initially dissolved in DMSO, and then is diluted stepwise with Ham's F-12 containing 100 mmol/L HEPES and 1 mmol/L isobutylmethylxanthine. 20 μL of the dilution is added to the cells. After the cells are cultured for 30 minutes, the medium is removed. 0.3. ml of the Assay/lysis Buffer included in cAMP-Screen kit (manufactured by Applied Biosystems, Inc.) is added to the cells, and the cells are incubated at 37° C. for 30 minutes. The resulting cell lysate is subjected to quantification of cAMP with the cAMP-Screen kit. […] Measurement of Human β2 Adrenergic Receptor Agonist Activity

[3] = target: T2, human β1 adrenergic receptor (Homo sapiens, UniProt P08588); experiment: Test Example 2-B: human β1 adrenergic receptor agonist activity (method of Test Example 1-B); type: cell-based; conditions: for β1 receptor EC50: Table 2, Test Example 2-B; for Emax: read-out: β1 receptor I.A.
T2 construct: expressed in transfected cells; host or cells: CHO (Chinese Hamster Ovary) cells, pcDNA3
Description: as §1, with “β1” for “β2”

[4] = target: T2, human β1 adrenergic receptor; experiment: Test Example 2-A: human β1 adrenergic receptor agonist activity (method of Test Example 1-A); type: cell-based; conditions: Table 1; for β1 receptor EC50: Test Example 2-A; for β1 receptor I.A.: maximum response to isoproterenol taken as 100%
Description: The measurement of human β3 adrenergic receptor agonist activity is carried out using CHO (Chinese Hamster Ovary) cells transfected with pcDNA3 (manufactured by Invitrogen, Inc.) to which human β3 gene has been inserted. […] This human β3 cDNA fragment is used as a probe, and the full length human β3 gene is obtained from a human genomic library (manufactured by Clontech Laboratories, Inc.). The above cells are cultured in Ham's F-12 medium containing 10% fetal bovine serum and 400 μg/ml geneticin (manufactured by Invitrogen, Inc.). These cells are seeded on a 24-well plate to a concentration of 1×10^5 cells/well, and after being cultured for about 20 hours, the cells are left to stand in serum-free Ham's F-12 medium for 2 hours. A test compound is initially dissolved in DMSO, and then is diluted stepwise with Ham's F-12 containing 20 mmol/L HEPES, 1 mmol/L isobutylmethylxanthine, and 1 mmol/L ascorbic acid. The dilution is added to the cells. After the cells are cultured for 30 minutes, and then the medium is removed, followed by addition of 0.1 ml of 1 N NaOH to the cells. The cells are left to stand for 20 minutes, and then are added with 0.1 ml of 1 N acetic acid and are stirred. The resulting cell lysate is centrifuged, and then is subjected to quantification of cAMP with cAMP EIA kit (manufactured by Cayman Chemical Co.). […] Measurement of Human β1 Adrenergic Receptor Agonist Activity

T1 sequence (P07550 whole entry): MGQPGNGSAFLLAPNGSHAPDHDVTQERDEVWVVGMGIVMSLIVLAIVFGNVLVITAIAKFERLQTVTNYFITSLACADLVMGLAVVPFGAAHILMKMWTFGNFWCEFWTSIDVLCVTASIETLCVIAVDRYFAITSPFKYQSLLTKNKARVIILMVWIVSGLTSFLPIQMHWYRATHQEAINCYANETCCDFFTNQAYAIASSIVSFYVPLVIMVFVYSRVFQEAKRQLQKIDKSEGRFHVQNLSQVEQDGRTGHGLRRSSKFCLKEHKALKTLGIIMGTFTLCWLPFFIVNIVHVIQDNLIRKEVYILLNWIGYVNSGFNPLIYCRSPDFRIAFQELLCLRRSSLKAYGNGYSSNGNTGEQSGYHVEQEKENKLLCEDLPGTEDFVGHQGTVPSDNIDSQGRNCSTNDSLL
T2 sequence (P08588 whole entry): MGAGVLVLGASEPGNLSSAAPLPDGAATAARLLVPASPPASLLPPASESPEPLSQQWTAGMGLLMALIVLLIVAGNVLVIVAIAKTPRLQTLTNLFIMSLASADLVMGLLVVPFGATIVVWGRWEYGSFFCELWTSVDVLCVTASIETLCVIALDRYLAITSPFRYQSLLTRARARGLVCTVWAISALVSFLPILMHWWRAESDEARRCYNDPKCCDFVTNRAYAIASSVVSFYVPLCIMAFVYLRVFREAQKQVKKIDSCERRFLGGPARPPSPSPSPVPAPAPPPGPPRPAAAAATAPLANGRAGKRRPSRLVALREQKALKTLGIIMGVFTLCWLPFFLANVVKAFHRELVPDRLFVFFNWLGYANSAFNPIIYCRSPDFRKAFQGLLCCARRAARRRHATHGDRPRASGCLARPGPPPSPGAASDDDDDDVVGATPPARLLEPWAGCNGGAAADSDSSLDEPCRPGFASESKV

Row | β2 receptor EC50 [2] | Emax [2] | β1 receptor EC50 [3] | Emax [3] | β1 receptor EC50 [4] | β1 receptor I.A. [4] | SMILES | relaxant activity (%) 10^−4 M [1] | relaxant activity (%) 10^−5 M [1]
1 | a) | 6.7% | a) | 12% |  |  | CC(C)c1n[nH]c2cc(OCCNC[C@H](O)c3cccc(NS(C)(=O)=O)c3)ccc12 [Example 1, (R)-N-(3-(1-hydroxy-2-(2-(3-isopropylindazol-6-yloxy)ethylamino)ethyl)phenyl)methanesulfonamide] | 68.6% | 49.9%
2 | a) | 2% | a) | 1% |  |  | CCCc1n[nH]c2cc(OCCNC[C@H](O)c3cccc(NS(C)(=O)=O)c3)ccc12 [Example 3, (R)-N-(3-(1-hydroxy-2-(2-(3-propylindazol-6-yloxy)ethylamino)ethyl)phenyl)methanesulfonamide] |  | 
3 | a) | 8% | a) | 18% |  |  | CCc1n[nH]c2cc(OCCNC[C@H](O)c3ccc(Cl)c(NS(C)(=O)=O)c3)ccc12 [Example 9, (R)-N-(2-chloro-5-(2-(2-(3-ethylindazol-6-yloxy)ethylamino)-1-hydroxyethyl)phenyl)methanesulfonamide] |  | 
4 | a) | 11% | a) | 15% |  |  | CCc1n[nH]c2cc(OCCNC[C@H](O)c3ccc(F)c(NS(C)(=O)=O)c3)ccc12 [Example 8, (R)-N-(5-(2-(2-(3-ethylindazol-6-yloxy)ethylamino)-1-hydroxyethyl)-2-fluorophenyl)methanesulfonamide] |  | 
5 | a) | 5% | a) | 22% |  |  | CS(=O)(=O)Nc1cc([C@@H](O)CNCCOc2ccc3c(C(F)(F)F)n[nH]c3c2)ccc1Cl [Example 11, (R)-N-(2-chloro-5-(1-hydroxy-2-(2-(3-(trifluoromethyl)indazol-6-yloxy)ethylamino)ethyl)phenyl)methanesulfonamide] | 39.2% | 20.1%
6 | a) | 5.4% |  |  | a) | 3.3% | CN(C)C(=O)CCc1n[nH]c2cc(OCCNC[C@H](O)c3cccc(NS(C)(=O)=O)c3)ccc12 [Example 5, (R)-3-(6-(2-(2-hydroxy-2-(3-(methylsulfonamido)phenyl)ethylamino)ethoxy)-indazol-3-yl)-N,N-dimethylpropanamide] | 56.3% | 50.9%
7 |  |  |  |  | a) | 3.3% | COCc1n[nH]c2cc(OCCNC[C@H](O)c3cccc(NS(C)(=O)=O)c3)ccc12 [Example 6, (R)-N-(3-(1-hydroxy-2-(2-(3-methoxymethylindazol-6-yloxy)ethylamino)ethyl)phenyl)methanesulfonamide] | 42.6% | 35.3%
8 | a) | 2.4% | a) | 6.3% |  |  | CS(=O)(=O)Nc1cccc([C@@H](O)CNCCOc2ccc3c(C(F)(F)F)n[nH]c3c2)c1 [Example 4, (R)-N-(3-(1-hydroxy-2-(2-(3-trifluoromethylindazol-6-yloxy)ethylamino)ethyl)phenyl)methanesulfonamide] | 73.5% | 40.8%
9 | a) | 3% | a) | 7% |  |  | COc1n[nH]c2cc(OCCNC[C@H](O)c3cccc(NS(=O)(=O)c4ccccc4)c3)ccc12 [Example 16, (R)-N-(3-(1-hydroxy-2-(2-(3-methoxyindazol-6-yloxy)ethylamino)ethyl)phenyl)benzenesulfonamide] |  | 

Row | SMILES | β2 receptor EC50 [2] | Emax [2] | β1 receptor EC50 [3] | Emax [3] | β1 receptor EC50 [4] | β1 receptor I.A. [4] | relaxant activity (%) 10^−4 M [1] | relaxant activity (%) 10^−5 M [1]
10 | CCc1n[nH]c2cc(OCCNC[C@H](O)c3cccc(NS(C)(=O)=O)c3)ccc12 [Example 2, (R)-N-(3-(1-hydroxy-2-(2-(3-ethylindazol-6-yloxy)ethylamino)ethyl)phenyl)methanesulfonamide] | a) | 4.3% | a) | 5.8% | a) | 8.1% | 57.8% | 43.4%

Reference: patent publication US8008506B2, “Indazole compounds” (priority 2008, dated 2011)
